Here are results for 16 molecules from patent US20110003711A1 (CHROMOCELL CORPORATION, priority 2008, published 2011).

Counter-ions that a name gives are not always drawn. Like-named read-outs stand apart in the source and are kept apart here.

Usually EC50 stands for the concentration needed to bring the measured effect to its halfway point.

Test [1] concerns the target T1, GABAA receptor α1β3γ2s (α1) (Homo sapiens, UniProt P14867+P18507+P28472).
T1 construct: Human GABAA receptor alpha 1 subunit amino acid; Human GABAA receptor beta 3 variant 1 subunit amino acid; Human GABAA receptor gamma 2 variant 1 (short) subunit amino acid; expressed in transfected cells
The experiment in a line: Membrane potential assay, CHO cell line expressing GABAA α1β3γ2s. It counts as cell-based. How it is done:
(§1) As will be appreciated by those of skill in the art, any reagent that is suitable for use with a chosen host cell may be used to introduce a nucleic acid, e.g. plasmid, oligonucleotide, labeled oligonucleotide, into a host cell with proper optimization. Examples of reagents that may be used to introduce nucleic acids into host cells include but are not limited to Lipofectamine, Lipofectamine 2000, Oligofectamine, TFX reagents, Fugene 6, DOTAP/DOPE, Metafectine, or Fecturin.
(§2) Cells were plated 24 hours prior to assay at 10-25,000 cells per well in 384 well plates in growth media (Ham's F-12 media plus FBS and glutamine). […] Incubation was for 1 hour, followed by plate loading onto the high throughput fluorescent plate reader (Hamamastu FDSS). […] The plates were read for 90 seconds.
(§3) Interaction of cell lines with test compounds was evaluated by measuring the membrane potential of GABAA, in response to test compounds using the following protocol.

For test [2], the target named is T2, GABAA receptor α2β3γ2s (α2) (Homo sapiens, UniProt P18507+P28472+P47869, A343T).
T2 construct: Human GABAA receptor alpha 2 subunit amino acid; Human GABAA receptor beta 3 variant 1 subunit amino acid; Human GABAA receptor gamma 2 variant 1 (short) subunit amino acid; expressed in transfected cells
T2 sequence (P47869 29-451 A343T): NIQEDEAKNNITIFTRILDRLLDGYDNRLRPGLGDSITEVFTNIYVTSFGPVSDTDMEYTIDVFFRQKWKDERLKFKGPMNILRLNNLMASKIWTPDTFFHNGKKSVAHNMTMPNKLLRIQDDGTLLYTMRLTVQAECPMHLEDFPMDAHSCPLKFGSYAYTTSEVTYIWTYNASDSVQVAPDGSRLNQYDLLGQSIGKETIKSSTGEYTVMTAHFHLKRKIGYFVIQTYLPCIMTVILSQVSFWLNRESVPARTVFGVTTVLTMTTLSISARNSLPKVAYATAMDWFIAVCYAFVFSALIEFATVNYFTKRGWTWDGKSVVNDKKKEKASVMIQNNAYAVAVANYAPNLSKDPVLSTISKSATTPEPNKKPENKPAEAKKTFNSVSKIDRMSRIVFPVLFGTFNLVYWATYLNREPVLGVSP
T2 sequence (P28472 26-473, stated change not applied): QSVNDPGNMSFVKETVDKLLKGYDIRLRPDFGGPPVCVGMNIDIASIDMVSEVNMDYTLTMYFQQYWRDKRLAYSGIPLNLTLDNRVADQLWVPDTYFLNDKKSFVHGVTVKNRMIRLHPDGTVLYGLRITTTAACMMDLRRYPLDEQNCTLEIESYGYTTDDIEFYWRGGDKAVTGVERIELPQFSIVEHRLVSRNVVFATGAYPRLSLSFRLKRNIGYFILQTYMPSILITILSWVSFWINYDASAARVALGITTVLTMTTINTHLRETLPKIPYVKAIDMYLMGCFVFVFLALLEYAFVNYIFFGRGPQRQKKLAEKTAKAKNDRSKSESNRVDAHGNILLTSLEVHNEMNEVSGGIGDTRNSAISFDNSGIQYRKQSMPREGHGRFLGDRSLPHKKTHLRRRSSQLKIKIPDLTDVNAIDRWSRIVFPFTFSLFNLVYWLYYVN
T2 sequence (P18507 40-467 isoform P18507-1, stated change not applied): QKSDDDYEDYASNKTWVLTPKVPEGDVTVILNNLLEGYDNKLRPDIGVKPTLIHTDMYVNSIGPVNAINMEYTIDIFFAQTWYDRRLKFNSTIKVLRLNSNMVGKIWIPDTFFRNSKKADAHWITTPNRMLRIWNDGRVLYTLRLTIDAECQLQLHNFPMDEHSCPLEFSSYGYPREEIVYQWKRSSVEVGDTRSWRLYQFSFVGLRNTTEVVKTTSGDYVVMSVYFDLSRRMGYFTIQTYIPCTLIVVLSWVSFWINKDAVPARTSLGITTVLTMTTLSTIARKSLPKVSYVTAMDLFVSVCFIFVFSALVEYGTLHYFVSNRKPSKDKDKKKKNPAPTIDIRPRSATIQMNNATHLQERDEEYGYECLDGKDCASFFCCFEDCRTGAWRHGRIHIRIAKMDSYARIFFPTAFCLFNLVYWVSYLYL
Description: Membrane potential assay, CHO cell line expressing GABAA α2β3γ2s. It counts as cell-based. As to conditions: membrane potential assay, CHO α2β3γ2s cell line. How it is done: as §1, §2, §3

Test [3] deals with T3, GABAA receptor α5β3γ2s (α5) (Homo sapiens, UniProt P18507+P28472+P31644).
T3 construct: Human GABAA receptor alpha 5 subunit amino acid; Human GABAA receptor beta 3 variant 1 subunit amino acid; Human GABAA receptor gamma 2 variant 1 (short) subunit amino acid; expressed in transfected cells
T3 sequence (P31644 32-462): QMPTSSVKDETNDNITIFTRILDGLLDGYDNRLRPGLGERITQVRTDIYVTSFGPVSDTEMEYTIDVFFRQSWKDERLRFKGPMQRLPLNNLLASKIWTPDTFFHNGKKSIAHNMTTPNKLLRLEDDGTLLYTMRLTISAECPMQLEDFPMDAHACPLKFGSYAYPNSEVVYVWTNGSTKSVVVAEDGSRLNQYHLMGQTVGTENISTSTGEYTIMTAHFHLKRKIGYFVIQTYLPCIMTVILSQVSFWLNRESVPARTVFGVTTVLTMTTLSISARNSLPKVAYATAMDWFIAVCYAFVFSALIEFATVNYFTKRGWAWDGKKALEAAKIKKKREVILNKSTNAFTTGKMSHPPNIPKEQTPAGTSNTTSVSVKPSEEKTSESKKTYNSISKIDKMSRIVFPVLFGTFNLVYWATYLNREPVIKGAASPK
T3 sequence (P28472 26-473): as the sequence (P28472 26-473, stated change not applied) above
T3 sequence (P18507 40-467 isoform P18507-1 limits assumed): as the sequence (P18507 40-467 isoform P18507-1, stated change not applied) above
Description: Membrane potential assay, CHO cell line expressing GABAA α5β3γ2s. It counts as cell-based. How it is done: as §1, §2, §3

The target of test [4] is T4, GABAA receptor α3β3γ2s (α3) (Homo sapiens, UniProt P18507+P28472+P34903).
T4 construct: Human GABAA receptor alpha 3 subunit amino acid; Human GABAA receptor beta 3 variant 1 subunit amino acid; Human GABAA receptor gamma 2 variant 1 (short) subunit amino acid; expressed in transfected cells
T4 sequence (P34903 29-492): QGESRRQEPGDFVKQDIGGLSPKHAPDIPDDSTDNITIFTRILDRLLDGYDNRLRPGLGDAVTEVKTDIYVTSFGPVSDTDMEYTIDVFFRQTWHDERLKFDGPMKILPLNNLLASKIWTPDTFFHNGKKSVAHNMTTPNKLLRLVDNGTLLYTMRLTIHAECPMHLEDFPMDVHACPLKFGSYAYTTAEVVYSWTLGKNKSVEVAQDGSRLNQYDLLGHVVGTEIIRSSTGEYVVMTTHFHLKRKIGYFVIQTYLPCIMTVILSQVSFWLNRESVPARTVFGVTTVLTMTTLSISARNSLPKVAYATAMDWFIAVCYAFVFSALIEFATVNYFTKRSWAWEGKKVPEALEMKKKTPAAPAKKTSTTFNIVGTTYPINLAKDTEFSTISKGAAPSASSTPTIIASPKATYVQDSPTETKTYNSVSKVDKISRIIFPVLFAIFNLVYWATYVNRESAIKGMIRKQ
T4 sequence (P28472 26-473): as the sequence (P28472 26-473, stated change not applied) above
T4 sequence (P18507 40-467 isoform P18507-1 limits assumed): as the sequence (P18507 40-467 isoform P18507-1, stated change not applied) above
Description: Membrane potential assay, CHO cell line expressing GABAA α3β3γ2s. In kind it is cell-based. How it is done: as §1, §2, §3

Test [5] has as its target T5, GABAA receptor α2β3γ2s (α2) (Homo sapiens, UniProt P18507+P28472+P47869).
T5 construct: Human GABAA receptor alpha 2 subunit amino acid; Human GABAA receptor beta 3 variant 1 subunit amino acid; Human GABAA receptor gamma 2 variant 1 (short) subunit amino acid; expressed in transfected cells
Description: Membrane potential assay, CHO cell line expressing GABAA α2β3γ2s. It counts as cell-based. How it is done: as §1, §2, §3

Test [6] concerns GABAA-meYFP-CHO cells (α1β3γ2s, α2β3γ2s, α3β3γ2s, α5β3γ2s). Description: In-cell readout assay using halide-sensitive meYFP. It counts as cell-based, human. As to conditions: increasing concentrations of GABA ligand. How it is done: The response of GABAA (subunit combinations of α1β3γ2s (A1), α2β3γ2s (A2), α3β3γ2s (A3) and α5β3γ2s (A5)) expressing CHO cells of the invention to test compounds was evaluated using the following protocol for an in-cell readout assay.
Cells were plated 24 hours prior to assay at 10-25,000 cells per well in 384 well plates in growth media (Ham's F-12 media plus FBS and glutamine). […] The assay plates were then loaded on the FDSS (Hamamatsu Corporation). […] The plates were read for 90 seconds.

Setting [7] is: membrane potential assay, CHO α1β3γ2s cell line, read-out: EC50 Values α1.
The mark [8] stands for this setting: membrane potential assay, CHO α5β3γ2s cell line, read-out: EC50 Values α5.
Setting [9] is: membrane potential assay, CHO α3β3γ2s cell line, read-out: EC50 Values α3.

T1 sequence (P14867 28-456): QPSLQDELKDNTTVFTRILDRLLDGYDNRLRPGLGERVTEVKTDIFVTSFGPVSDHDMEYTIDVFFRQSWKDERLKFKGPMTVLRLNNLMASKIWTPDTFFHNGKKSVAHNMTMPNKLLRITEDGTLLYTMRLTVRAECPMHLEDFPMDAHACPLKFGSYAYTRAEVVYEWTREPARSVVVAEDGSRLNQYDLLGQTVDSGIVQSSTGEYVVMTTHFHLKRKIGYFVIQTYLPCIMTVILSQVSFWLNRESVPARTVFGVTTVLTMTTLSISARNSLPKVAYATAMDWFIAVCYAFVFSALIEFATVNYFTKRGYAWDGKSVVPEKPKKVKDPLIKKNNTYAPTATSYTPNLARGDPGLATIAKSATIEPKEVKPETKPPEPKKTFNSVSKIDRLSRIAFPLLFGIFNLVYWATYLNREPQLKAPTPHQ
T1 sequence (P28472 26-473): as the sequence (P28472 26-473, stated change not applied) above
T1 sequence (P18507 40-467 isoform P18507-1 limits assumed): as the sequence (P18507 40-467 isoform P18507-1, stated change not applied) above
T5 sequence (P47869 29-451 A343T): as the sequence (P47869 29-451 A343T) above
T5 sequence (P28472 26-473, change not shown): as the sequence (P28472 26-473, stated change not applied) above
T5 sequence (P18507 40-467 isoform P18507-1, change not shown): as the sequence (P18507 40-467 isoform P18507-1, stated change not applied) above

As for `C[C@]12CC[C@@H](O)C[C@@H]1CC[C@@H]1[C@@H]2CC[C@]2(C)[C@@H](C(=O)CO)CC[C@@H]12` [3-alpha, 21-dihydroxy-5-alpha-pregnan-20-one], the EC50 in test [1] (setting [7]) was determined as 382 nM; in test [2] it was 123 nM; in test [3] (setting [8]), 17.3 nM; in test [4] (setting [9]), 80.2 nM.

As to `CC(=O)[C@H]1CC[C@H]2[C@@H]3CC[C@H]4C[C@H](O)CC[C@]4(C)[C@H]3CC[C@]12C` [5-alpha-Pregnan-3alpha-ol-20-one], the EC50 in test [1] (setting [7]) was determined as 692 nM; in test [5], 140 nM; in test [3] it was 33.6 nM; in test [4] (setting [9]), 80 nM.

In the case of `C[C@]12CC[C@@H](O)C[C@@H]1CC[C@@H]1[C@@H]2CC[C@]2(C)C(=O)CC[C@@H]12` [Androsterone], the EC50 was 1480 nM in test [1], 1520 nM in test [5], 337 nM in test [3] and 1120 nM in test [4].

On to `CN1C(=O)CCS(=O)(=O)C1c1ccc(Cl)cc1` (stereo not shown) [Chlormezanone], for which the EC50 in test [1] worked out at 1.74 nM; in test [5] it was 5.42 nM; in test [3], 14.1 nM; in test [4] it was 7 nM.

Consider `OCCN(CCO)c1nc(N2CCCCC2)c2nc(N(CCO)CCO)nc(N3CCCCC3)c2n1` [Dipyridamole], for which the EC50 worked out at 3680 nM in test [2], 1370 nM in test [3] (setting [8]) and 3690 nM in test [4] (setting [9]).

Turning to `CCOC(=O)c1cnc2c(cnn2CC)c1NN=C(C)C` [Etazolate], the EC50 was found to be 2540 nM in test [1] (setting [7]), 790 nM in test [2], 281 nM in test [3] (setting [8]) and 569 nM in test [4] (setting [9]).

On to `NCCCC(=O)O` [GABA, Gamma-aminobutyric acid], for which the “Quench of meYFP signal” value in test [6] is listed as “increasing quench of meYFP signal”.

In the case of `COc1cc(/C=C(\C#N)C(=O)c2ccc(O)c(O)c2)cc(I)c1O` [I-OMe Tyrphostin 538], the EC50 in test [1] (setting [7]) is 3500 nM; in test [2] it was 1500 nM; in test [4] (setting [9]), 2200 nM. Also, the “EC50 Values α5 (result in words)” value in test [3] (membrane potential assay, CHO α5β3γ2s cell line) is listed as “α5 Not active”.

As for `O=C(O)C1=CCNCC1` [Isoguvacine hydrochloride], the EC50 was 3570 nM in test [1] (setting [7]), 3420 nM in test [2], 1130 nM in test [3] (setting [8]) and 6780 nM in test [4] (setting [9]).

With `NCc1cc(=O)[nH]o1` [Muscimol], the EC50 amounted to 4000 nM in test [1], 675 nM in test [5], 80 nM in test [3] and 367 nM in test [4].

Turning to `O=C(Nc1ccc([N+](=O)[O-])cc1Cl)c1cc(Cl)ccc1O` [Niclosamide], the EC50 in test [3] (setting [8]) worked out at 690 nM; in test [4] (setting [9]) it was 550 nM.

Turning to `O=S(=O)(O)C1CCNCC1` [Piperidine-4-sulphonic acid], the EC50 in test [1] (setting [7]) was found to be 13000 nM; in test [2], 20000 nM; in test [3] (setting [8]), 14200 nM; in test [4] (setting [9]), 8330 nM.

In the case of `CC(C)c1cccc(C(C)C)c1O` [Propofol], the EC50 in test [1] stood at 33400 nM; in test [5] it was 42800 nM; in test [3] it was 2000 nM; in test [4], 12900 nM.

As for `CCCCNc1c(C(=O)OCC)c(C)nc2c1cnn2CC` [Tracazolate], the EC50 in test [1] (setting [7]) came out at 10600 nM; in test [2], 8900 nM; in test [3] (setting [8]), 762 nM; in test [4] (setting [9]), 4300 nM.

In the case of `CC(C)(C)c1cc(C=C(C#N)C#N)cc(C(C)(C)C)c1O` [Tyrphostin A9], the EC50 in test [1] (setting [7]) came to 1800 nM; in test [2], 880 nM; in test [3] (setting [8]), 54000 nM; in test [4] (setting [9]), 5000 nM.

In the case of Ivermectin, the EC50 amounted to 4260 nM in test [1] (setting [7]), 767 nM in test [2], 687 nM in test [3] (setting [8]) and 798 nM in test [4] (setting [9]).
